The source made the active and inactive calls. Some results are limits rather than exact numbers.

Data on six molecules can be found in ChEMBL document CHEMBL1201862, “PubChem BioAssay data set” (2004).

The target in assay [1] is T1, Heat shock factor protein 1 (Mus musculus, UniProt P38532).
T1 sequence (P38532 whole entry): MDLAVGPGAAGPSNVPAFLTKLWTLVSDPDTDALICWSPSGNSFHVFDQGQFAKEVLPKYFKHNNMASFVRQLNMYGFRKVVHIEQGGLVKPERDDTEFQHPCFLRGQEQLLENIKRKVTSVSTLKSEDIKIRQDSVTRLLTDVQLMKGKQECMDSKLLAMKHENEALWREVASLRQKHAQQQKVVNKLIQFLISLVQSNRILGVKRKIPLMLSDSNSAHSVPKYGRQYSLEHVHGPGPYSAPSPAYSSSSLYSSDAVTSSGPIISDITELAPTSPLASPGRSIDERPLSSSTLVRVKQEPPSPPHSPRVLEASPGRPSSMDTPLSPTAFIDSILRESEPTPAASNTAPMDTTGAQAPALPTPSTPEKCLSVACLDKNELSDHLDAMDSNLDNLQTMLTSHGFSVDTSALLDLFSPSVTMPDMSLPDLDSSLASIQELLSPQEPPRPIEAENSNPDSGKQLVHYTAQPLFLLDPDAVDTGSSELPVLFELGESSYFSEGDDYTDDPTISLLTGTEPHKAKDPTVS
Nature of the assay: enhancement of HSF1-driven luciferase signal – cell-based, NIH3T3, luminescence, dose retest, confirmation (AID 435004).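 Note: stress induced by proteasome inhibitor MG132 added 30 min after compound; luciferase reporter driven by HSF1 response element in NIH3T3 cells; actives raise luminescence as potentiators of the MG132 stress response.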 In kind it is functional.

Another assay addresses Phospholipase A2 (Homo sapiens, UniProt P04054). It counts as functional.
The target of a further assay is T2, Cysteine protease ATG4B (Homo sapiens, UniProt Q9Y4P1).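 Note: Fluorescence-based dose-response confirmation assay measuring inhibition of ATG4B activity.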
T2 sequence (Q9Y4P1 whole entry): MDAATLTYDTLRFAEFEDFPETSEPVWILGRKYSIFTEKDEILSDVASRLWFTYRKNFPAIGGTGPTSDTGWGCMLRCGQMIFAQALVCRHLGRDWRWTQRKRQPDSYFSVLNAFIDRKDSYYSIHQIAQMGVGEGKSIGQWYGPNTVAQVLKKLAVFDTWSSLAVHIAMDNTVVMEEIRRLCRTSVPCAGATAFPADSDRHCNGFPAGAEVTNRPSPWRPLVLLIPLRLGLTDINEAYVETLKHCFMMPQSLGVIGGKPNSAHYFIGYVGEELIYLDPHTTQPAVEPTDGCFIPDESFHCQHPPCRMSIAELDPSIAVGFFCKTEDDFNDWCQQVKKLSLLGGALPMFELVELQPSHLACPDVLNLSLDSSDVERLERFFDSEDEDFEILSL
In kind it is functional.

For assay [2], the target named is T3, RNA-binding protein pos-1 (Caenorhabditis elegans, UniProt G5EF15).
T3 sequence (G5EF15 whole entry): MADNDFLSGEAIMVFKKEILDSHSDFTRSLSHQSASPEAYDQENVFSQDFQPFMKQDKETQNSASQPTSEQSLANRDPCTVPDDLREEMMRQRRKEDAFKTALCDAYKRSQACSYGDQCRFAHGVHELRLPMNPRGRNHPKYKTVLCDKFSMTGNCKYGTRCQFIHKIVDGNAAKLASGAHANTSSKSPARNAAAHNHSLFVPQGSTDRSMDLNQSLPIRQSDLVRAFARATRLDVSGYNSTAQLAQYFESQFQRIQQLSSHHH
Kind of assay: disruptors of C. elegans POS-1 RNA interaction – biochemical, fluorescence polarization, dose response (AID 1964).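 Note: purified POS-1 fused to maltose binding protein made in E. coli; potency of compounds blocking POS-1 binding to fluorescent RNA.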

The target in assay [3] is T4, Endoribonuclease toxin MazF (Escherichia coli K-12, UniProt P0AE70).
T4 sequence (P0AE70 whole entry): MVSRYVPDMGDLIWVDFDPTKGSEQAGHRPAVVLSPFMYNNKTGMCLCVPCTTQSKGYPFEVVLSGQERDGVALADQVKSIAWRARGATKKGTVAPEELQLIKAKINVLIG
Nature of the assay: substrate-only fluorescence increase artefacts – biochemical, single-stranded RNase substrate, counter-screen for MazEF activator project, dose response (AID 588502). In kind it is functional. (A counterscreen serves to expose hits that act by an unwanted route or on another target.)

Assay [4] concerns the target T4, Endoribonuclease toxin MazF. Nature of the assay: activation of MazEF endoribonuclease cleavage – biochemical, fluorescence, single-stranded RNA substrate, uHTS hits, dose response (AID 588481). It counts as functional.
The target in assay [5] is T5, Zinc finger protein mex-5 (Caenorhabditis elegans, UniProt Q9XUB2).
T5 sequence (Q9XUB2 whole entry): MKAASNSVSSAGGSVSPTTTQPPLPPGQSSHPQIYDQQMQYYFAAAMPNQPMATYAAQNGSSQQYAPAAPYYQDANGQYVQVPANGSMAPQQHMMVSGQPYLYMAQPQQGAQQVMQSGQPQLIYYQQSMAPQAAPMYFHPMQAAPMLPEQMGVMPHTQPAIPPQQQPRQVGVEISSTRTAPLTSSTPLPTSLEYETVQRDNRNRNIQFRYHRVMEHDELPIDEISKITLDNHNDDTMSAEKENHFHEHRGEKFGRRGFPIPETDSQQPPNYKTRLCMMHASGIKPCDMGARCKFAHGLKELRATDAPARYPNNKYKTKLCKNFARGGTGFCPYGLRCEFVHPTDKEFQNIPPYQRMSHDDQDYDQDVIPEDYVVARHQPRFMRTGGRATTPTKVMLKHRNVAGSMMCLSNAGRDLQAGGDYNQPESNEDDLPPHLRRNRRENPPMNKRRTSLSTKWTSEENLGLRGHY
Kind of assay: potency of MEX-5 RNA-binding blockers – biochemical, C. elegans, fluorescence polarization, dose response (AID 1960).

A short description of assay [6]: viability of uninfected HEp-2 cells – cell-based, HTS, cytotoxicity control for RSV inhibitor project, dose response (AID 2410). It counts as functional. Particulars: human respiratory syncytial virus.
A further assay has as its target T6, DNA topoisomerase (Yersinia pestis, UniProt A0A2S9PM60).
T6 sequence (A0A2S9PM60 whole entry): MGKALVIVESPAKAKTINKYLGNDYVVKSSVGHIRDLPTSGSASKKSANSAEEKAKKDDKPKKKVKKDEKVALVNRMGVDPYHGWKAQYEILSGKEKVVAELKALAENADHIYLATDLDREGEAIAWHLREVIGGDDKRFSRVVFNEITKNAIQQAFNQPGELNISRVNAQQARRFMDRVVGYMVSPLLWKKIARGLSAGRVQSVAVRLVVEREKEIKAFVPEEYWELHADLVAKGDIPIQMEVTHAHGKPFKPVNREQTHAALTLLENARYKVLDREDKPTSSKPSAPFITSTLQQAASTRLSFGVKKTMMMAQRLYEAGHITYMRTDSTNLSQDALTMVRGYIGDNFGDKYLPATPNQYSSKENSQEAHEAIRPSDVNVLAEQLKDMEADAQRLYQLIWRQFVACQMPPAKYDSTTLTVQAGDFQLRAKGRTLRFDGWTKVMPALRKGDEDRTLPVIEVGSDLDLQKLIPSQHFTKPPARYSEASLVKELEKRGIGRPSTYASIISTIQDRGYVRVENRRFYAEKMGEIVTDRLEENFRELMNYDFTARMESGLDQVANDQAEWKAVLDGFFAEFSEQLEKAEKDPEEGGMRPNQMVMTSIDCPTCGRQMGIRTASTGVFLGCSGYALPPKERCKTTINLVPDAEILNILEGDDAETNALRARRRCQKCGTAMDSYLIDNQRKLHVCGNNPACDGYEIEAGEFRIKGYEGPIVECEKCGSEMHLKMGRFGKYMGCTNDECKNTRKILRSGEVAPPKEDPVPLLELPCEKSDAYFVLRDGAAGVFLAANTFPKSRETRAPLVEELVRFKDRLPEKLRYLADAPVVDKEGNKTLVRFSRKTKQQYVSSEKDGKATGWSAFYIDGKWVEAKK
Nature of the assay: Yersinia topoisomerase I cleavage product accumulation – biochemical, cherry-pick, dose response (AID 588525).

The target in a further assay is Beta-galactosidase (Escherichia coli, UniProt Q8VNN2). Nature of the assay: PubChem AID 485352. It counts as functional.
Assay [7] has as its target T7, Type-1 angiotensin II receptor (Homo sapiens, UniProt P30556).
T7 sequence (P30556 whole entry): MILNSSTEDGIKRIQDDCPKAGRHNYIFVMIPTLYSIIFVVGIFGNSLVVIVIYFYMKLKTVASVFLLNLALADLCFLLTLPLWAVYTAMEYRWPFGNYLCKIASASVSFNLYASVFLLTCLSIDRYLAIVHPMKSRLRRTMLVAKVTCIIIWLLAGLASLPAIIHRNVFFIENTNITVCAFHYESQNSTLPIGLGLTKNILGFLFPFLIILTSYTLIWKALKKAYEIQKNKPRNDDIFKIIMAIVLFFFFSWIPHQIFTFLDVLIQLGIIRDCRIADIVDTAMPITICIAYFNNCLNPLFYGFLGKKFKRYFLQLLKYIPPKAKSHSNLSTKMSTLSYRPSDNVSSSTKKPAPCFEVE
Nature of the assay: antagonism of angiotensin II type 1 receptor – cell-based, uHTS hits, selectivity assay for APJ receptor antagonist project, dose response (AID 463214).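 Note: antagonist potency against angiotensin II stimulated AT1 response.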 It counts as functional.

Chain of Phospholipase A2 (P04054 whole entry): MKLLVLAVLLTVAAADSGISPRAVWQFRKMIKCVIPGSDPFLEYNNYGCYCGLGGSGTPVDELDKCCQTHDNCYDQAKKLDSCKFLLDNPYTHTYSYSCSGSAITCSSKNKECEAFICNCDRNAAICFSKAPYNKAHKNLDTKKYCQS
Chain of Beta-galactosidase (Q8VNN2 whole entry): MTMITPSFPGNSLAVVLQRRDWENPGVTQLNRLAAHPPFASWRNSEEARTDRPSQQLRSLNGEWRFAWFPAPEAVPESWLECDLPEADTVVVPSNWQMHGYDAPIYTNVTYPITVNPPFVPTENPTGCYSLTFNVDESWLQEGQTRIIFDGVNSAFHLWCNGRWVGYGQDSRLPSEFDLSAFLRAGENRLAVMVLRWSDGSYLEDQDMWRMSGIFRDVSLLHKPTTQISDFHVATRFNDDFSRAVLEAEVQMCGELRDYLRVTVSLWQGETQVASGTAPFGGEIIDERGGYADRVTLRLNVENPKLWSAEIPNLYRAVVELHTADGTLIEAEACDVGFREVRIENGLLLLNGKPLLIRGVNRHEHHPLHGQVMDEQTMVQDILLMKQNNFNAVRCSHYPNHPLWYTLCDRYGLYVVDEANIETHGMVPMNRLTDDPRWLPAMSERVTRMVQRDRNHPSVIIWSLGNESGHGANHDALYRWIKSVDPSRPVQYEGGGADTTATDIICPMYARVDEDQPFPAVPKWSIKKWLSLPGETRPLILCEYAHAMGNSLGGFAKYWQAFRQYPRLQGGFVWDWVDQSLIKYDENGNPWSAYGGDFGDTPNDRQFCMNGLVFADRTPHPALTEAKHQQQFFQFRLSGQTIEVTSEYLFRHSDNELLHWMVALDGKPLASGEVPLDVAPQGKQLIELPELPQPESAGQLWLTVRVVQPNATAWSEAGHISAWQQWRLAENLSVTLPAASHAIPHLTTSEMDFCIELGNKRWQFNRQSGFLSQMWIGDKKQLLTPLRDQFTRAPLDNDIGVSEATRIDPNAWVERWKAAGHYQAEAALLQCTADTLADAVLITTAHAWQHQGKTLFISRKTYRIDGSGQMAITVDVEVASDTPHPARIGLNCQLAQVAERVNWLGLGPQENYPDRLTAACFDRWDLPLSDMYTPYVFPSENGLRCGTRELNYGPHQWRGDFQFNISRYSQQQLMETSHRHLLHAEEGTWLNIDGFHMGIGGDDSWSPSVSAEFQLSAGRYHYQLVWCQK

The term EC50 denotes the midpoint of the concentration-response curve. By IC50 is commonly meant the point on the concentration scale where inhibition reaches its midpoint. With `NC(=O)c1ccc(C(F)(F)F)n(Cc2cccc(Cl)c2)c1=O`, in assay [1], the EC50 is > 260 µM (inactive). For the same molecule, the IC50 at Phospholipase A2 was 3.93 µM (active); at Cysteine protease ATG4B, 26.3 µM (inactive).

In the case of `COc1ccc(/C=C/c2nc3sc4c(c3c(=O)o2)CCC4)cc1`, the EC50 in assay [2] was 6.97 µM (inconclusive); in [3] it was > 99 µM (inactive); in assay [4], 46.6 µM (inactive); in [5], 125 µM (inconclusive).

A word on the CC50: it is the concentration at which the toxic effect on the cells reaches its halfway point. As usually defined, the AC50 is the concentration giving half of the maximal activity seen. As for `O=C1CN(C(=O)CSc2nc3cc(Cl)ccc3c(=O)n2Cc2ccccc2)c2ccccc2N1`, the CC50 in assay [6] is 46.4 µM (active). Also, at DNA topoisomerase, the AC50 is 9.89 µM (active).

`N#Cc1ccc(-c2cccnc2)nc1SCC(=O)c1ccccc1`: the EC50 in [3] was 35.9 µM (inactive); in assay [4] it was 23.3 µM (inactive).

Consider `Cc1ccc(C2=C/C(=C/c3cccs3)C(=O)O2)cc1`, for which the figures for the EC50 in assay [3] and in assay [4] were 28.2 µM (inactive) and > 99 µM (inactive), respectively.

As to `Cc1ccc(C(=O)CNc2cccc(Cl)c2)cc1`, the EC50 on Beta-galactosidase was > 40 µM (inactive). Moreover, the AC50 on DNA topoisomerase was 21.7 µM (active). In assay [7], the IC50 was 9.87 µM (active).
